Laboratory results from patent US11034672B1, “Tyrosine kinase inhibitor compositions, methods of making and methods of use” (Black Diamond Therapeutics, Inc., priority 2018, dated 2021).
Values belong to the compound of their own block, whether it stands above or below them.

Tests used:
Type in all cases: cell-based
[1] = biological target: T1, EGFR WT (Homo sapiens, UniProt P00533); test: Activity for inhibiting EGFR (Table A), EGFR WT; conditions: read-out: EGFR WT, potency code (IC50)
[2] = biological target: T2, EGFR V3 (Homo sapiens, UniProt P00533, DELINS30-297G); test: Activity for inhibiting EGFR (Table A), EGFR V3 (EGFR-Viii); conditions: read-out: EGFR V3, potency code (IC50)
T2 construct: expressed in transfected cells; host or cells: BaF3 (murine pro-B), retroviral pMXs-IRES-Blasticidin

[3] = biological target: T3, EGFR NPH (Homo sapiens, UniProt P00533, DUP771-773); test: Activity for inhibiting EGFR (Table A), EGFR NPH; conditions: read-out: EGFR NPH, potency code (IC50)
T3 construct: expressed in transfected cells; host or cells: BaF3 (murine pro-B), retroviral pMXs-IRES-Blasticidin

[4] = biological target: T4, EGFR SVD (Homo sapiens, UniProt P00533, DUP768-770); test: Activity for inhibiting EGFR (Table A), EGFR SVD; conditions: read-out: EGFR SVD, potency code (IC50)
T4 construct: expressed in transfected cells; host or cells: BaF3 (murine pro-B), retroviral pMXs-IRES-Blasticidin

[5] = biological target: T5, HER2 WT (Homo sapiens, UniProt P04626); test: Activity for inhibiting HER2 (Table B), HER2 WT
[6] = biological target: T6, HER2 S310F (Homo sapiens, UniProt P04626, S310F); test: Activity for inhibiting HER2 (Table B), HER2 S310F; conditions: read-out: HER2 S310F, potency code (IC50)
T6 construct: expressed in transfected cells; host or cells: BaF3 (murine pro-B)
Protocol: (§1) EC50 values were determined with the same application.

[7] = biological target: T7, HER2 YVMA (Homo sapiens, UniProt P04626, INS775YVMA); test: Activity for inhibiting HER2 (Table B), HER2 YVMA; conditions: read-out: HER2 YVMA, potency code (IC50)
T7 construct: expressed in transfected cells; host or cells: BaF3 (murine pro-B)
Protocol: as §1

[8] = biological target: T1, EGFR WT; test: BaF3 cell proliferation assay, EGFR WT (Table A); conditions: potency code, 3 days, CellTiterGlo, read-out: EGFR WT (Activity for Inhibiting EGFR)
Outline: (§2)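 BaF3 cells were infected twice with retrovirus carrying the mutant (pMXs-IRES-Blasticidin, 8 μg/ml polybrene, spinoculation), then selected in 10 μg/ml blasticidin for one week. Resistant pools were then grown without IL-3 to select for IL-3-independent growth. EC50 values were derived from proliferation.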

[9] = biological target: T2, EGFR V3; test: BaF3 cell proliferation assay, EGFR V3 (Table A); conditions: potency code, 3 days, CellTiterGlo, read-out: EGFR V3 (Activity for Inhibiting EGFR)
Outline: as §2

[10] = biological target: T3, EGFR NPH; test: BaF3 cell proliferation assay, EGFR NPH (Table A); conditions: potency code, 3 days, CellTiterGlo, read-out: EGFR NPH (Activity for Inhibiting EGFR)
Protocol: (§3) Retroviral Production: EGFR mutants were subcloned into pMXs-IRES-Blasticidin (RTV-016, Cell Biolabs, San Diego, Calif.). Retroviral expression vector retrovirus was produced by transient transfection of HEK 293T cells with the retroviral EGFR mutant expression vector pMXs-IRES-Blasticidin (RTV-016, Cell Biolabs), pCMV-Gag-Pol vector and pCMV-VSV-G-Envelope vector. Briefly, HEK 293T/17 cells were plated in 100 mm collagen coated plate (354450, Corning Life Sciences, Tewksbury, Mass.) (4×10^5 per plate) and incubated overnight. The next day, retroviral plasmids (3 μg of EGFR mutant, 1.0 μg of pCMV-Gag-Pol and 0.5 μg pCMV-VSV-G) were mixed in 500 μl of Optimem (31985, Life Technologies). The mixture was incubated at room temperature for 5 min and then added to Optimem containing transfection reagent Lipofectamine (11668, Invitrogen) and incubated for 20 minutes. Mixture was then added dropwise to HEK 293T cells. The next day the medium was replaced with fresh culture medium and retrovirus was harvested @ 24 and 48 hrs.
(§4) Generation of EGFR mutant stable cell lines: BaF3 cells (1.5E5 cells) were infected with 1 ml of viral supernatant supplemented with 8 μg/ml polybrene by centrifuging for 30 min at 1000 rpm. Cells were placed in a 37° C. incubator overnight. Cells were then spun for 5 minutes to pellet the cells. Supernatant was removed and cells re-infected a fresh 1 ml of viral supernatant supplemented with 8 μg/ml polybrene by centrifuging for 30 min at 1000 rpm. Cells were placed in 37° C. incubator overnight. […] After 48 hours cells were selected for retroviral infection in 10 μg/ml Blasticidin for one week. Blasticidin resistant populations were washed twice in phosphate buffered saline before plating in media lacking IL-3 to select for IL-3 independent growth.
as §1

[11] = biological target: T4, EGFR SVD; test: BaF3 cell proliferation assay, EGFR SVD (Table A); conditions: potency code, 3 days, CellTiterGlo, read-out: EGFR SVD (Activity for Inhibiting EGFR)
Protocol: as §3, §4, §1

[12] = biological target: T5, HER2 WT; test: BaF3 cell proliferation assay, HER2 WT (Table B); conditions: potency code, 3 days, CellTiterGlo, read-out: HER2 WT (Activity for Inhibiting HER2)
[13] = biological target: T6, HER2 S310F; test: BaF3 cell proliferation assay, HER2 S310F (Table B); conditions: potency code, 3 days, CellTiterGlo, read-out: HER2 S310F (Activity for Inhibiting HER2)
[14] = biological target: T7, HER2 YVMA; test: BaF3 cell proliferation assay, HER2 YVMA (Table B); conditions: potency code, 3 days, CellTiterGlo, read-out: HER2 YVMA (Activity for Inhibiting HER2)
[15] = Table B, read-out: HER2 WT, potency code (IC50)
[16] = text lists of compounds, read-out: IC50 value for inhibiting wild-type HER2

T5 sequence (P04626 23-1255): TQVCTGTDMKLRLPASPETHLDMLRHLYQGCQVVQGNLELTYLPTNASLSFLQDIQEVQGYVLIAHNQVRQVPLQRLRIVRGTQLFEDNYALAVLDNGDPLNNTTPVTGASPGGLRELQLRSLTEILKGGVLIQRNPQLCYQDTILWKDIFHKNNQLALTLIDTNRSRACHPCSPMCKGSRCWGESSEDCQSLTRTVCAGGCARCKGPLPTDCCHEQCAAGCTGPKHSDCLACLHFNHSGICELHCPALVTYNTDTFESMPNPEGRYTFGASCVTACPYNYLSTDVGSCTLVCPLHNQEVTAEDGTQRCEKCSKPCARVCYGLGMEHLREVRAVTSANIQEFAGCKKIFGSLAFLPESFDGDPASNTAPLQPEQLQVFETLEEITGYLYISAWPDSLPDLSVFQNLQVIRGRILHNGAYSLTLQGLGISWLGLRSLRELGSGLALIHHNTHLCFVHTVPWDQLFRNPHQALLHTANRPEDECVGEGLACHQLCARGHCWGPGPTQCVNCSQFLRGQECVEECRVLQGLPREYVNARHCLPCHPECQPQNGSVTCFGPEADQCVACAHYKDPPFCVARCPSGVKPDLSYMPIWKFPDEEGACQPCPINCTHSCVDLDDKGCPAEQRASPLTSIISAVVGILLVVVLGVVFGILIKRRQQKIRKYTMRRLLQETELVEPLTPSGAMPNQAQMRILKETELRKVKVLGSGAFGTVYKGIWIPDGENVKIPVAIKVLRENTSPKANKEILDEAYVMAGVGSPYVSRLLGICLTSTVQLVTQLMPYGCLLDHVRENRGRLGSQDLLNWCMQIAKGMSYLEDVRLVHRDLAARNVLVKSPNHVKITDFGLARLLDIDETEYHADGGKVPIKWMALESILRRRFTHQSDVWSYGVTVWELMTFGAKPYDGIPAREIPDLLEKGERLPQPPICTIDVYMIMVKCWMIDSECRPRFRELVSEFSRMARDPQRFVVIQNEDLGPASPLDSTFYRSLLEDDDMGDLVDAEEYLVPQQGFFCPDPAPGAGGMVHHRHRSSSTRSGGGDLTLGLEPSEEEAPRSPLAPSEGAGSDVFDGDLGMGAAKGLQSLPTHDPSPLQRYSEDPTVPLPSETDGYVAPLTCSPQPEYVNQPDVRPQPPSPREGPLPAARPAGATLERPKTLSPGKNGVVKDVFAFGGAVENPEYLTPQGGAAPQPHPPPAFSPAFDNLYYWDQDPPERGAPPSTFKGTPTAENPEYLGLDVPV
T7 sequence (P04626 with tags, fused parts or gaps INS775YVMA): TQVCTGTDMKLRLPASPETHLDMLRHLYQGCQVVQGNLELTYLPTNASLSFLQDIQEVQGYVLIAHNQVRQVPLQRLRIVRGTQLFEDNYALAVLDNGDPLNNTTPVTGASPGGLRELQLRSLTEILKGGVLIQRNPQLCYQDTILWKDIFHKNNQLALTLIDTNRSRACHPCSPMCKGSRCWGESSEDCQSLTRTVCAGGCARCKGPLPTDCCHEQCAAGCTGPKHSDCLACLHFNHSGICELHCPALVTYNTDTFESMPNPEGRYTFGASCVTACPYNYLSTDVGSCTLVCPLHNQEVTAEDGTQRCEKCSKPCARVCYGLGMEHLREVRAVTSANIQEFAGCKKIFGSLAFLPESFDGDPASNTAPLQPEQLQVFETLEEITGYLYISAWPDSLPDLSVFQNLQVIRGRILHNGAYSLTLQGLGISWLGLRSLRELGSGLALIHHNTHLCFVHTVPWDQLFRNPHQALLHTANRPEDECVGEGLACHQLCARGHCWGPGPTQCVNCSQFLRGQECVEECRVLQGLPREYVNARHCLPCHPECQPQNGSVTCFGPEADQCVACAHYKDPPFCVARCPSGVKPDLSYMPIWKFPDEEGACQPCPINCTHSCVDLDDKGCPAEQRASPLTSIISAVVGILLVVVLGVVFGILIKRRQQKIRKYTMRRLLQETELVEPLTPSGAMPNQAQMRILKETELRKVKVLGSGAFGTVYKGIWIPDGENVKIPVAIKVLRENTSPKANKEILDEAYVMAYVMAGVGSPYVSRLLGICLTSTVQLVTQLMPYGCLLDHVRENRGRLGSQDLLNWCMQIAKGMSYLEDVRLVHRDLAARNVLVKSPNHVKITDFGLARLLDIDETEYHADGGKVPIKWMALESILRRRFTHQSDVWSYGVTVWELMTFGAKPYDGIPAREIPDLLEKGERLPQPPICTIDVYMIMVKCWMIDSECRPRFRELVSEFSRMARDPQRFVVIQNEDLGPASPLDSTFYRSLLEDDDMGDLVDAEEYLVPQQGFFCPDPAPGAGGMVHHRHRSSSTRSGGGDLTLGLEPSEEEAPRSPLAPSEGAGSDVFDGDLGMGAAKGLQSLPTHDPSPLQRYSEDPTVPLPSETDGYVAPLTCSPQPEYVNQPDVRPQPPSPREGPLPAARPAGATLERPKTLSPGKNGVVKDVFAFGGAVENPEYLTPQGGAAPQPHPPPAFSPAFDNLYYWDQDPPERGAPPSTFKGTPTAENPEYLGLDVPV
T4 sequence (P00533 with tags, fused parts or gaps DUP768-770): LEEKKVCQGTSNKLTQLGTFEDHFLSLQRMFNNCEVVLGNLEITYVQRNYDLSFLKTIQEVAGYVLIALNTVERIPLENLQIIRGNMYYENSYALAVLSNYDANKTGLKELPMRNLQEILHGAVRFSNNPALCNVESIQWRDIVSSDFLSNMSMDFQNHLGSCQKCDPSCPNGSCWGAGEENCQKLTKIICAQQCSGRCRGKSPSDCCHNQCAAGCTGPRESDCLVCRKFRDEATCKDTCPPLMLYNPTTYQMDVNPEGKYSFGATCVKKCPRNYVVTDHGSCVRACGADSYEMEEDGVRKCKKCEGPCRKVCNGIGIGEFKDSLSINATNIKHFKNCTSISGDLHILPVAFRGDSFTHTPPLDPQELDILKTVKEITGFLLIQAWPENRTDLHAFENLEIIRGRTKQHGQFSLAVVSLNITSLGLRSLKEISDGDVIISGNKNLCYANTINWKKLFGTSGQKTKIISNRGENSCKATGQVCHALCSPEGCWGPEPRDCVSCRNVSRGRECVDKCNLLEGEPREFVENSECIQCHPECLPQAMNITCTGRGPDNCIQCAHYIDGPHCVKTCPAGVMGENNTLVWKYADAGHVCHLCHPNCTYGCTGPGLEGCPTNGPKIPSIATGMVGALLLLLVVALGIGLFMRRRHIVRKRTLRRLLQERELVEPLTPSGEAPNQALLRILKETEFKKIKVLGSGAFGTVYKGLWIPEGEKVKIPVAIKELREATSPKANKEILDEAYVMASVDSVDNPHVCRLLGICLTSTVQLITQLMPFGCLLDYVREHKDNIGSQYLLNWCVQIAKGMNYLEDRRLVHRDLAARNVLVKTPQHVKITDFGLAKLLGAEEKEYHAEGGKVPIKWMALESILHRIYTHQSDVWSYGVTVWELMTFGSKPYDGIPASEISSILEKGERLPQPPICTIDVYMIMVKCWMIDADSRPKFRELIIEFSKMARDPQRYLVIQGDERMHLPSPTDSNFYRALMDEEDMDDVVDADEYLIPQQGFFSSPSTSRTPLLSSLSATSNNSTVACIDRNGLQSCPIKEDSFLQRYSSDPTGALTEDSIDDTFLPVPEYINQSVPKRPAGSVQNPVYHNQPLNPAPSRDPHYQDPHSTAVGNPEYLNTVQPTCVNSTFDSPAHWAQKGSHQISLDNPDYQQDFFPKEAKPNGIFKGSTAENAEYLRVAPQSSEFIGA
T3 sequence (P00533 with tags, fused parts or gaps DUP771-773): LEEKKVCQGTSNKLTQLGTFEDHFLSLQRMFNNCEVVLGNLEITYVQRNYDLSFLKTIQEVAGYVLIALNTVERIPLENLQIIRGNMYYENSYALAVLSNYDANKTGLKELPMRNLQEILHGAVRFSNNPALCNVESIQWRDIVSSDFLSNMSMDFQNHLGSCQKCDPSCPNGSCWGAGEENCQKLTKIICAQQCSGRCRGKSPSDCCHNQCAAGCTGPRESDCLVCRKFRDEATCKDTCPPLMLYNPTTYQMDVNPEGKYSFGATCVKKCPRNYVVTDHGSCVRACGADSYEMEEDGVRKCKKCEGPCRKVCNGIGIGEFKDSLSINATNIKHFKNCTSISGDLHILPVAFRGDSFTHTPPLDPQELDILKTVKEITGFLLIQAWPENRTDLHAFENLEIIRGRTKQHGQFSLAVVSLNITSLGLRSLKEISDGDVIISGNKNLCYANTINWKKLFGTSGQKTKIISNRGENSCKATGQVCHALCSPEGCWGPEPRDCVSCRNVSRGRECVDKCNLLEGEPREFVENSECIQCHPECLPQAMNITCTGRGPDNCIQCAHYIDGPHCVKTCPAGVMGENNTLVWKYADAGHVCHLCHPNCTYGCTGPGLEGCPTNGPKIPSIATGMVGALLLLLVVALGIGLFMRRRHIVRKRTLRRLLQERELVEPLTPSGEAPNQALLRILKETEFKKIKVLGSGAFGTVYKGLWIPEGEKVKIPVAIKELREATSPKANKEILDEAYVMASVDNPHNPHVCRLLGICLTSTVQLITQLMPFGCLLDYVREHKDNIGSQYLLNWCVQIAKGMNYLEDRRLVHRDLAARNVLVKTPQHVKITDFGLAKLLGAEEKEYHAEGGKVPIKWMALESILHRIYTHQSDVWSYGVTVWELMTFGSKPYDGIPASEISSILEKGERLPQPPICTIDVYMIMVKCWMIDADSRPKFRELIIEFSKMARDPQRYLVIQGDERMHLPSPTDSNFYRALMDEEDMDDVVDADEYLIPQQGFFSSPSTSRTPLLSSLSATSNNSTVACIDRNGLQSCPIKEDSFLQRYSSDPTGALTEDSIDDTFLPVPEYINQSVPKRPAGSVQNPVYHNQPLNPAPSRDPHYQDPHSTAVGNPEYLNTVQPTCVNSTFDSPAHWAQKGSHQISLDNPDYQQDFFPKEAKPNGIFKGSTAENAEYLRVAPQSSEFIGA

Compound: C=CC(=O)Nc1cc2c(Nc3ccc(OCc4ccccn4)c(Cl)c3)ncnc2cc1OCCN1CC2(CCO2)C1 [compound 52]
IC50 [1]: 500 to 1000 nM
IC50 [2]: 20 to 30 nM
IC50 [3]: 50 to 100 nM
IC50 [4]: 50 to 100 nM
IC50 [5, 15]: 5 to 10 nM
IC50 [5, 16]: ≤ 10 nM
IC50 [6]: 20 to 30 nM
IC50 [7]: 100 to 200 nM
IC50 [8]: 500 to 1000 nM
IC50 [9]: 20 to 30 nM
IC50 [10]: 50 to 100 nM
IC50 [11]: 50 to 100 nM
IC50 [12]: 5 to 10 nM
IC50 [13]: 20 to 30 nM
IC50 [14]: 100 to 200 nM

Compound: C=CC(=O)Nc1cc2c(Nc3ccc(OCc4ccccn4)c(Cl)c3)ncnc2cc1OCC1(N(C)C)CC1 [compound 54]
IC50 [1]: > 1000 nM
IC50 [2]: 10 to 20 nM
IC50 [3]: 100 to 200 nM
IC50 [4]: 50 to 100 nM
IC50 [5, 15]: 5 to 10 nM
IC50 [5, 16]: ≤ 10 nM
IC50 [6]: 20 to 30 nM
IC50 [7]: 100 to 200 nM
IC50 [8]: > 1000 nM
IC50 [9]: 10 to 20 nM
IC50 [10]: 100 to 200 nM
IC50 [11]: 50 to 100 nM
IC50 [12]: 5 to 10 nM
IC50 [13]: 20 to 30 nM
IC50 [14]: 100 to 200 nM

Compound: C=CC(=O)Nc1cc2c(Nc3cc(Cl)c(OCc4ccccn4)cc3F)ncnc2cc1OCCN1CCOCC1 [compound 57]
IC50 [1]: 500 to 1000 nM
IC50 [2]: 10 to 20 nM
IC50 [3]: 50 to 100 nM
IC50 [4]: 30 to 50 nM
IC50 [5, 15]: 5 to 10 nM
IC50 [5, 16]: ≤ 10 nM
IC50 [6]: 10 to 20 nM
IC50 [7]: 50 to 100 nM
IC50 [8]: 500 to 1000 nM
IC50 [9]: 10 to 20 nM
IC50 [10]: 50 to 100 nM
IC50 [11]: 30 to 50 nM
IC50 [12]: 5 to 10 nM
IC50 [13]: 10 to 20 nM
IC50 [14]: 50 to 100 nM

Next, values leading:

IC50 [1]: 300 to 500 nM
IC50 [2]: 30 to 50 nM
IC50 [3]: 500 to 1000 nM
IC50 [4]: 500 to 1000 nM
IC50 [5, 15]: 10 to 20 nM
IC50 [5, 16]: ≤ 20 nM
IC50 [6]: 30 to 50 nM
IC50 [7]: 500 to 1000 nM
IC50 [8]: 300 to 500 nM
IC50 [9]: 30 to 50 nM
IC50 [10]: 500 to 1000 nM
IC50 [11]: 500 to 1000 nM
IC50 [12]: 10 to 20 nM
IC50 [13]: 30 to 50 nM
IC50 [14]: 500 to 1000 nM
Compound: C=CC(=O)Nc1cc2c(Nc3ccc(OCc4ccccn4)c(Cl)c3)ncnc2cc1N1CC2CN(C)CC2C1 (stereo not drawn) [compound 47]

IC50 [1]: 500 to 1000 nM
IC50 [2]: 20 to 30 nM
IC50 [3]: 50 to 100 nM
IC50 [4]: 30 to 50 nM
IC50 [5, 15]: 5 to 10 nM
IC50 [5, 16]: ≤ 10 nM
IC50 [6]: 10 to 20 nM
IC50 [7]: 50 to 100 nM
IC50 [8]: 500 to 1000 nM
IC50 [9]: 20 to 30 nM
IC50 [10]: 50 to 100 nM
IC50 [11]: 30 to 50 nM
IC50 [12]: 5 to 10 nM
IC50 [13]: 10 to 20 nM
IC50 [14]: 50 to 100 nM
Compound: C=CC(=O)Nc1cc2c(Nc3ccc(OCc4ccccn4)c(Cl)c3)ncnc2cc1OCCN1CC2COCC2C1 (stereo not drawn) [compound 51]

IC50 [1]: 300 to 500 nM
IC50 [2]: 20 to 30 nM
IC50 [3]: 300 to 500 nM
IC50 [4]: 300 to 500 nM
IC50 [5, 15]: 20 to 30 nM
IC50 [5, 16]: ≤ 50 nM
IC50 [6]: 50 to 100 nM
IC50 [7]: 200 to 300 nM
IC50 [8]: 300 to 500 nM
IC50 [9]: 20 to 30 nM
IC50 [10]: 300 to 500 nM
IC50 [11]: 300 to 500 nM
IC50 [12]: 20 to 30 nM
IC50 [13]: 50 to 100 nM
IC50 [14]: 200 to 300 nM
Compound: C=CC(=O)Nc1cc2c(Nc3ccc(OCc4ccccn4)cc3F)ncnc2cc1OCCN1CCOCC1 [compound 56]
